Melting point data for 88 compounds are collected here from a melting point compilation (Tetko et al.; mined from patent text by program, amines drawn as free bases though some values may be those of a salt).

Turning to `CN(C)c1cccc(S(=O)Nc2ccccc2)c1` (stereo not drawn), the melting point (commonly the temperature of the solid-liquid transition) lay in the range of 86 to 87 °C.

`NS(=O)(=O)NCCc1ccccc1` came in with a melting point of 61.8 to 62 °C. To `c1ccc2c(c1)nc1n2CCCSC1` belongs 155 to 157 °C; to `CNc1cc(Br)nc(S(=O)(=O)c2ccc([N+](=O)[O-])cc2)c1`, 191 to 192 °C.

`O=C(Nc1ccc(F)cc1)C12CC3CC(CC(C3)C1)C2` showed a melting point of 170 to 171 °C. As for `C=CCN(CC=C)c1nc(NC(=O)Cc2ccccc2)n2oc(=O)nc2n1`, the melting point fell in the range of 165 to 167 °C. Turning to `CC1CCC(N(CC2CCCC(CN(C(=O)Nc3ccc(N(C)C)cc3)C3CCC(C)CC3)C2)C(=O)Nc2ccc(N(C)C)cc2)CC1` (stereo not drawn), the melting point was 106 to 110 °C. `COC(=O)CCc1c(O)ncc2cc(OC)c(OC)cc12` came in with a melting point of 178 to 180 °C.

For `COc1c2c(nc3ccccc13)CCNCC2`, the melting point worked out at 112 °C.

For `CCN1CCN(c2nccc(Oc3ccc(NC(=O)c4cc(F)cc(N5CCOCC5)c4)c4ccccc34)n2)CC1`, the melting point is 185 to 186 °C. `ON1CCC2(CC1)OC(c1ccccc1)c1ccccc12` (stereo not drawn) had a melting point of 184 to 187 °C. To `O=C1Nc2ccc(F)cc2C1c1ncnc2c1cnn2C1CCCCC1` (stereo not drawn) belongs 282 to 286 °C; to `CCN(CC)C1=NC(NC(=O)CCCCc2ccccc2)C(=O)N(C)c2ccccc21` (stereo not drawn), 134 to 135 °C.

`CCOC(=O)c1nc2cc(NC(=O)c3c(C(=O)N4CCC4)cnn3C)ccn2n1` registered a melting point of 252 to 255 °C. The compound `COc1ccc2nc(NC(=O)C(CC3CCCC3)c3ccc(S(=O)(=O)NC4CC4)cc3)sc2n1` (stereo not drawn) had a melting point of 235 to 237 °C. To `O=C(NCC1Cc2ccc3c(c2O1)CCCC3)OCc1ccccc1` (stereo not drawn) belongs 88 to 90 °C; to `CC(=O)NC1(c2ccc(Cl)c(C(F)(F)F)c2)CCN(Cc2ccccc2)CC1`, 198 to 199 °C; to `CCC#CC(C)(C)NC(=O)C(CC)Oc1cncc(Br)c1` (stereo not drawn), 90 to 92 °C. Compound `O=C1CCCc2snc(Cl)c21` registered a melting point of 84 to 85 °C.

`CC1(C)CCC(C)(C)c2cc(-c3cc(-c4ccc(C(=O)O)cc4)ccc3-c3ccccc3)c(O)cc21` displayed a melting point of 145 °C.

Regarding `O=C(NCCOc1ccc(CC(Oc2ccccc2)C(=O)O)cc1[N+](=O)[O-])c1ccc(-c2ccccn2)cc1` (stereo not drawn), the melting point lay in the range of 178 to 179 °C.

In the case of `N#Cc1ccc2c(c1)C(=O)C1(CC1)O2`, the melting point lay within 148 to 149 °C.

On to `COc1c(NC(=O)COc2ccccc2)c(C(N)=O)c(OC)c(NC(=O)COc2ccccc2)c1C(N)=O`, for which the melting point is 272 to 274 °C. `COc1cc2c(c(Cl)c1Cl)SC(C1CCCCC1)C2O` (stereo not drawn) had a melting point of 166 to 167 °C. `CCOC(=O)c1cnc(NN)nc1-c1ccccc1` gave a melting point of 74 to 75 °C.

`CCCCOc1cc([N+](=O)[O-])c(OCCCC)cc1N=NN1CCOCC1`: the melting point fell in the range of 79 to 81 °C.

For `O=C(O)c1ccc(-c2csc(-c3cccnc3)n2)cc1`, the melting point was > 300 °C. `CCCn1c(COCC)nc2c(N)nc3ccc(OCCCCCCNS(C)(=O)=O)cc3c21` displayed a melting point of 164 to 167 °C. In turn, `CCOC(=O)c1cccc(-c2nccc(OCCc3ccc(OC)c(OC)c3)n2)c1` came in with a melting point of 101 to 102 °C. `CN(C(=O)c1ccc(-n2cc3ccccc3n2)cc1)C1CCN(C(=O)OC(C)(C)C)CC1` registered a melting point of 176 to 177 °C. Turning to `O=c1ccc2cnc(Nc3ccccc3)nc2n1C1CCCC1`, the melting point fell in the range of 188 to 192 °C. `CCNC(=S)NCc1ccc(/C=C/C(c2cc(Cl)c(Cl)c(Cl)c2)C(F)(F)F)cc1Cl` (stereo not drawn) yielded a melting point of 88 to 91 °C. As to `Nc1cc(Cl)cc(Cl)c1C(=O)NCc1ccccc1`, the melting point was in the range of 90 to 96 °C. Take `CC(C)CN(OCc1ccccc1)C(=O)Nc1ccccc1`: the melting point is 85 to 87 °C. In the case of `CON=C1CN(c2nc3c(cc2F)c(=O)c(C(=O)O)cn3C2CC2)CC12CN(C)C2`, the melting point was in the range of 225 to 227 °C. To `COc1ccc(-c2cc3ncc(C#N)c(Nc4ccc(Sc5nccn5C)c(Cl)c4)c3cc2OC)cc1` belongs 227 to 229 °C; to `Nc1nc(CN2CCC(c3c[nH]c4ccccc34)CC2)cs1`, 195 to 198 °C; to `N#Cc1cc2c(Oc3ccc(Cl)cc3)cncc2s1`, 140 to 142 °C. On to `N#Cc1cnn2c1NCC=C2c1ccc(Cl)cc1`, for which the melting point was 208 to 209 °C. In turn, `COc1ccc(-c2nn(C3CCCC3)c3c(F)cccc23)cc1` had a melting point of 70 to 71 °C. Next, `CC1=CC(=O)C(C(=O)Cc2ccccc2)C(=O)O1` (stereo not drawn): 150 to 151 °C; `O=C(Nc1ccc(Br)cc1)Nn1cnc2c(O)cccc2c1=O`: 276 to 278 °C. The compound `Cc1cc(-c2cc(COS(C)(=O)=O)c(=O)n(Cc3ccccc3Cl)n2)ccc1F` yielded a melting point of 142 to 143 °C. For the compound `CNc1ncnc(N2CCc3ccccc32)n1`, the melting point was 185 to 187 °C.

In turn, `Cc1cccc(C=CC(=O)c2ccc([N+](=O)[O-])cc2)c1` returned a melting point of 130 to 132 °C. As for `CC(=O)Nc1cc(N2CCCCC2)nc(=N)n1O`, the melting point lay in the range of 204 to 205 °C. `Cc1cccc(-c2[nH]c(C(C)C)nc2-c2cccc(-c3ccc(S(C)(=O)=O)cc3)c2)n1` registered a melting point of 104 to 106 °C. Take `Cc1nc(-c2ccccc2)nc(N2CCCC2C(=O)O)c1C` (stereo not drawn): the melting point fell in the range of 90 to 92 °C. As for `O=C(O)c1cn(C2CC2)c2c(F)c(N3CCC(n4cnnn4)C3)c(F)cc2c1=O` (stereo not drawn), the melting point was 268 to 270 °C. Next, `CC1(C)OC(=O)C(Oc2cccc(N)n2)=C1c1ccc(S(C)(=O)=O)cc1`: 165 to 166 °C; `COc1cccc2cc(C(=O)Nc3ccc(-n4nc(C(F)(F)F)cc4C(F)(F)F)cc3)oc12`: 109 to 110 °C. In the case of `CCn1c(C)nc2c(C3=NC(C)(C(C)C)C(=O)N3)c(C(=O)OC)ccc21` (stereo not drawn), the melting point lay in the range of 189 to 191 °C.

Consider `CCCC1=C(C(=O)OCC)C(c2ccccc2OC2CCCC2)c2c[nH]nc2N1` (stereo not drawn), for which the melting point turned out to be 195 °C. For `O=C(O)Cn1c(-c2ccc(Br)o2)nc2cccnc21`, the melting point lay in the range of 229 to 231 °C.

Compound `N#Cc1cccc2c(Cl)ccc([N+](=O)[O-])c12` came in with a melting point of 210 to 212 °C.

The compound `O=C1NC(=O)C(Cc2ccc(OCCON=Cc3ccccn3)cc2)S1` (stereo not drawn) came in with a melting point of 161 to 163 °C. In the case of `Nc1ccccc1Oc1cccc2c1NC(=O)C2`, the melting point was in the range of 210 to 212 °C. Take `COC(NC(C)=O)(C(=O)O)C(Br)Br` (stereo not drawn): the melting point lay within 143 to 144 °C. The compound `O=[N+]([O-])c1ccc(OS(=O)(=O)C(F)(F)F)c2oc3ccccc3c12` displayed a melting point of 102 to 103 °C.

As to `Clc1ccc(N=Cc2ccc(Cl)c3cc(Cl)cnc23)c(Cl)c1`, the melting point is 156 °C.

For `CC(C)(C)OC(=O)N[C@H]1C=C[C@@H](C(=O)O)C1`, the melting point is 153 to 155 °C. On to `CC(=O)COc1ccc(Cl)cc1Cc1ccccc1`, for which the melting point lay in the range of 65 to 66 °C. With `Cc1c(SCCCSCCn2c([N+](=O)[O-])cnc2C)ccnc1CNc1cnc2ccccc2c1`, the melting point was in the range of 133 to 135 °C. Compound `Cc1nc2c3c(ccn2c1C)C(=O)[C@@](C)(O)[C@@H](c1ccccc1)N3` registered a melting point of 240 °C. For the compound `Cc1c[nH]c(C)c1-c1nc2ccc(C(=O)c3ccccc3)cc2[nH]1`, the melting point fell in the range of 207 to 214 °C. `Cc1cc(NC(=O)c2ccn3c2CSC3c2cccnc2)c2ccccc2c1` (stereo not drawn) had a melting point of 172 °C. `CCc1nc(N)nc(NC(CC)COCc2ccc(F)cc2)n1` (stereo not drawn) gave a melting point of 96 °C. For the compound `COC(=O)c1ccc(Cl)cc1NC(=O)CSc1ccccc1C(=O)O`, the melting point lay within 207 to 209 °C.

In turn, `COc1ccc2c(n1)CC(=O)N2CCCO` displayed a melting point of 121 to 122 °C.

The compound `Cc1cc2c(-c3ccccc3)c(CCNC(=O)OCc3ccccc3)n(C)c(=O)c2cc1C` returned a melting point of 227 to 228 °C. To `CCCn1c(CCOC)nc2c(N)nc3cc(OC4CCN(C(=O)C(C)C)CC4)ccc3c21` belongs 165 to 166 °C; to `COc1ccc2c3c1CCCC3C(CN1CCN(C)CC1)CC2` (stereo not drawn), 115 to 116 °C; to `C=CCSC(=S)c1cc(C(C)(C)C)c(O)c(C(C)(C)C)c1`, 93 to 95 °C. The compound `Cc1cc(C)c2cccc(OCc3c(Cl)ccc(S(=O)(=O)N4CCC[C@H]4C(=O)NCc4ccc(C=NN)cn4)c3Cl)c2n1` displayed a melting point of 128 to 130 °C. `COC(=O)c1c(Sc2ccc(OC)cc2)nc(C(=O)c2ccccc2)n1Cc1cc2c(cc1Cl)OCO2` returned a melting point of 166 °C.

For the compound `Cc1nc2cc(OCCCN3CC=C(c4c[nH]c5ccc(C#N)cc45)CC3)ccc2s1`, the melting point lay within 263 to 265 °C. `C=C1c2c(C)c(N3CCN(c4ccc(OC)cc4)CC3)c(C)c(C)c2OC1(C)C` showed a melting point of 134 to 136 °C. With `O=S(=O)(Nc1ccccc1)c1cccc(Br)c1`, the melting point is 98 to 100 °C.

As to `CC(C)c1ccc2c(c1)c(Sc1ccccc1)c(CCC(C)(C)C(=O)O)n2Cc1ccc(Cl)cc1`, the melting point lay within 164 to 166 °C. Regarding `CCC(=O)NC(C)(C(=O)NS(=O)(=O)c1ccc(C)cc1)C(C)C` (stereo not drawn), the melting point was 166 to 168 °C. As to `CC1(C)CCC(OC2=C(c3ccc(S(C)(=O)=O)cc3)C(C)(C)OC2=O)C1` (stereo not drawn), the melting point lay within 99 to 100 °C. `O=c1c2ccccc2nc(CCl)n1-c1ccccc1Cl` came in with a melting point of 195 to 196 °C.

For `CC(C)(CCC(=O)O)C(=O)Oc1cc(Cl)ccc1Oc1ccc(Cl)cc1Cl`, the melting point was in the range of 125 to 128 °C. Turning to `NS(=O)(=O)c1ccc(Nc2nc(OCC3CCCCC3)c3[nH]cnc3n2)cc1`, the melting point lay in the range of 152 to 154 °C. The compound `CC(C)(Oc1ccc(CCC(=O)c2ccc(-c3ccc(C(F)(F)F)cc3)s2)cc1)C(=O)O` registered a melting point of 154 to 155 °C. Next, `O=C(O)c1ccccc1SC1CCOC1=O` (stereo not drawn): 180 to 182 °C. For `N#CCc1c(Br)csc1Br`, the melting point lay in the range of 75.5 to 77 °C. On to `Nc1cccc(-c2n[nH]c3ncnc(Nc4cccc(Cl)c4)c23)c1`, for which the melting point lay in the range of 264 to 266 °C.
